PubChem BioAssay AID2060884 (Molecular Pharmacology Branch, DTP, NCI, 2025)
Several values for one entry are separate records, joined by “and”; a condition that tells them apart may be missing. Identical values can stand only once.

Tested on: NCI-H929 complex spheroids, viability % test/control
Assay: Anticancer human tumor NCI-H929 cell line growth inhibition [RAS];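 note: compound exposure lasted seven days before viability was read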;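 for viability, T/C: 100% = DMSO vehicle control viability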
Conditions: for viability, T/C: stronger effect = lower value
In short: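 Tumour cells grown as complex spheroids with HUVEC endothelial cells and mesenchymal stem cells, treated with RAS pathway inhibitor combinations. Each agent spans half-log steps from near clinical Cmax, or 10 microM where Cmax is unknown.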

[1] = curve of first compound, second compound 0.0316 µM
[2] = curve of first compound, second compound 0.1 µM
[3] = curve of first compound, second compound 0.316 µM
[4] = curve of first compound, second compound 1 µM
[5] = second compound 0.0316 µM, first compound 0.0316 µM
[6] = second compound 0.0316 µM, first compound 0.1 µM
[7] = second compound 0.0316 µM, first compound 0.316 µM
[8] = second compound 0.0316 µM, first compound 1 µM
[9] = second compound 0.0316 µM, first compound 3.16 µM
[10] = second compound 0.0316 µM, first compound 10 µM
[11] = second compound 0.1 µM, first compound 0.0316 µM
[12] = second compound 0.1 µM, first compound 0.1 µM
[13] = second compound 0.1 µM, first compound 0.316 µM
[14] = second compound 0.1 µM, first compound 1 µM
[15] = second compound 0.1 µM, first compound 3.16 µM
[16] = second compound 0.1 µM, first compound 10 µM
[17] = second compound 0.316 µM, first compound 0.0316 µM
[18] = second compound 0.316 µM, first compound 0.1 µM
[19] = second compound 0.316 µM, first compound 0.316 µM
[20] = second compound 0.316 µM, first compound 1 µM
[21] = second compound 0.316 µM, first compound 3.16 µM
[22] = second compound 0.316 µM, first compound 10 µM
[23] = second compound 1 µM, first compound 0.0316 µM
[24] = second compound 1 µM, first compound 0.1 µM
[25] = second compound 1 µM, first compound 0.316 µM
[26] = second compound 1 µM, first compound 1 µM
[27] = second compound 1 µM, first compound 3.16 µM
[28] = second compound 1 µM, first compound 10 µM

For `Cc1nc(N2CCC3(CC2)COC(C)C3N)c(CO)nc1Sc1ccnc(N)c1Cl` (stereo not given) + C=CC(=O)N1CCN(c2nc(OCC3CCCN3C)nc3c(F)c(-c4nc(N)cc(C)c4C(F)(F)F)c(Cl)cc23)C(C)C1, the IC50 (curve of first compound, second compound 0.00316 µM) was greater than 10000 nM, the IC50 (curve of first compound, second compound 0.01 µM) was greater than 10000 nM and the IC50 [1] was greater than 10000 nM. It also gave an IC50 [2] greater than 10000 nM, an IC50 [3] greater than 10000 nM and an IC50 [4] greater than 10000 nM. It also gave a viability, T/C (second compound 0.00316 µM, first compound 0.0316 µM) of 97.9%, a viability, T/C (second compound 0.00316 µM, first compound 0.1 µM) of 94.5% and a viability, T/C (second compound 0.00316 µM, first compound 0.316 µM) of 97.1%. It also gave a viability, T/C (second compound 0.00316 µM, first compound 1 µM) of 94.4%, a viability, T/C (second compound 0.00316 µM, first compound 3.16 µM) of 101% and a viability, T/C (second compound 0.00316 µM, first compound 10 µM) of 98.3%. For the same compound, the viability, T/C (second compound 0.01 µM, first compound 0.0316 µM) was 95.8%, the viability, T/C (second compound 0.01 µM, first compound 0.1 µM) was 96% and the viability, T/C (second compound 0.01 µM, first compound 0.316 µM) was 99.8%. It also gave a viability, T/C (second compound 0.01 µM, first compound 1 µM) of 96.5%, a viability, T/C (second compound 0.01 µM, first compound 3.16 µM) of 101% and a viability, T/C (second compound 0.01 µM, first compound 10 µM) of 102%. For the same compound, the viability, T/C [5] was 95.7%, the viability, T/C [6] was 102% and the viability, T/C [7] was 100%. For the same compound, the viability, T/C [8] was 99.3%, the viability, T/C [9] was 102% and the viability, T/C [10] was 102%. It also gave a viability, T/C [11] of 95.6%, a viability, T/C [12] of 101% and a viability, T/C [13] of 100%. The viability, T/C [14] was 102%, the viability, T/C [15] was 104% and the viability, T/C [16] was 99.7%. It also gave a viability, T/C [17] of 101%, a viability, T/C [18] of 101% and a viability, T/C [19] of 103%. For the same compound, the viability, T/C [20] was 100%, the viability, T/C [21] was 102% and the viability, T/C [22] was 104%. The viability, T/C [23] was 104%, the viability, T/C [24] was 105% and the viability, T/C [25] was 105%. For the same compound, the viability, T/C [26] was 105%, the viability, T/C [27] was 109% and the viability, T/C [28] was 103%.

In the case of `CC1(O)CCCC1n1c(=O)c(C(F)F)cc2cnc(NC3CCN(S(C)(=O)=O)CC3)nc21` (stereo not given) + C#Cc1c(F)ccc2cc(O)cc(-c3ncc4c(N5CC6CCC(C5)N6)nc(OCC56CCCN5CC(F)C6)nc4c3F)c12, the IC50 [1] is reported as 190 nM, the IC50 [2] is reported as 191 nM and the IC50 [3] is reported as 194 nM. The IC50 [4] was 193 nM, the IC50 (curve of first compound, second compound 3.16 µM) was 183 nM and the IC50 (curve of first compound, second compound 10 µM) was 105 nM. For the same compound, the viability, T/C [5] was 112%, the viability, T/C [6] was 106% and the viability, T/C [7] was 5.76%. For the same compound, the viability, T/C [8] was 10.1%, the viability, T/C [9] was 3.99% and the viability, T/C [10] was 0.89%. The viability, T/C [11] was 104%, the viability, T/C [12] was 108% and the viability, T/C [13] was 5.96%. The viability, T/C [14] was 11.6%, the viability, T/C [15] was 3.51% and the viability, T/C [16] was 0.63%. It also gave a viability, T/C [17] of 105%, a viability, T/C [18] of 112% and a viability, T/C [19] of 6.91%. It also gave a viability, T/C [20] of 13.5%, a viability, T/C [21] of 4.01% and a viability, T/C [22] of 0.21%. The viability, T/C [23] was 107%, the viability, T/C [24] was 109% and the viability, T/C [25] was 6.21%. The viability, T/C [26] was 11.2%, the viability, T/C [27] was 3.72% and the viability, T/C [28] was 0.45%. The viability, T/C (second compound 3.16 µM, first compound 0.0316 µM) was 114%, the viability, T/C (second compound 3.16 µM, first compound 0.1 µM) was 99% and the viability, T/C (second compound 3.16 µM, first compound 0.316 µM) was 6%. The viability, T/C (second compound 3.16 µM, first compound 1 µM) was 12.5%, the viability, T/C (second compound 3.16 µM, first compound 3.16 µM) was 2.73% and the viability, T/C (second compound 3.16 µM, first compound 10 µM) was 0.21%. The viability, T/C (second compound 10 µM, first compound 0.0316 µM) was 97.9%, the viability, T/C (second compound 10 µM, first compound 0.1 µM) was 51.8% and the viability, T/C (second compound 10 µM, first compound 0.316 µM) was 10.6%. For the same compound, the viability, T/C (second compound 10 µM, first compound 1 µM) was 11.6%, the viability, T/C (second compound 10 µM, first compound 3.16 µM) was 3.3% and the viability, T/C (second compound 10 µM, first compound 10 µM) was 0.45%.

With `CCN1CCN(Cc2ccc(Nc3ncc(F)c(-c4cc(F)c5nc(C)n(C(C)C)c5c4)n3)nc2)CC1` the viability, T/C (compound 0.00316 µM) was 106% [middle of 4 runs], the viability, T/C (compound 0.01 µM) was 101% (2×) and 100% and 102% and the viability, T/C (compound 0.0316 µM) was 108% [middle of 4 runs]. For the same compound, the viability, T/C (compound 0.1 µM) was 107% (2×) and 98.7% and 108%, the viability, T/C (compound 0.316 µM) was 117% (2×) and 102% and 115% and the IC50 (curve of compound) was > 1000 nM and 774 nM and 695 nM.
